{"source": "patent US9907758B2", "about": "“Process for preparing solid lipid sustained release nanoparticles for delivery of vitamins” (Department of Biotechnology (DBT), priority 2012, dated 2018)", "key": {"[1]": {"assay": "In vivo pharmacokinetic studies, oral and subcutaneous", "design": "species or system male Wistar rats", "conditions": "for AUC(0-t): plasma", "protocol": "In vivo pharmacokinetic studies were performed using male Wistar rats weighing 250-300 g. The protocol was duly approved by the Institutional Animal Ethics Committee (IAEC) of Panjab University, Chandigarh, India. The animals were divided into four groups (n=6). Group 1 was administered 2.5 Lacs International units (IU) subcutaneous retinoic acid and vitamin D3 SLNs simultaneously, Group 2 was also simultaneously administered 2.5 Lacs IU free retinoic acid and vitamin D3. Group 3 was administered simultaneously 1 Lac IU oral Retinoic acid and vitamin D3 SLNs, Group 4 was administered simultaneously 1 Lac IU oral free Retinoic acid and vitamin D3. The blood samples (0.5 mL) were withdrawn from sinus under clavicle and, collected into heparinized micro-centrifuge tubes (containing […] of 1000 IU heparin/mL of blood) at 0.5 h, 1 h, 2 h, 4 h, 8 h, 12 h, 24 h, 48 h, 72 h, 96 h, 120 h, 144 h, 168 h. After each sampling, 1 mL of dextrose-normal saline was administered to prevent changes in the central compartment volume and electrolytes. Plasma was separated by centrifuging the blood samples at 4000 rpm for 10 min at 4° C. After centrifugation, the plasma obtained was stored at −20° C. until analysis.\n500 microliter blank plasma was taken and into it added 20 microliter stock standard dilutions of different concentrations (0.01 mcg to 1 mcg) (vortex) and added 400 microliter of chilled ethanol (vortex) and to it was added 2 ml (n-Hexane:ethylacetate (90:10) (Vortex) and the same was kept at −20° C. for 5 min followed by Cold centrifuge at 5000 rpm for 5 min finally separating the upper layer carefully and drying the solution under rotavapour/nitrogen gas, after drying add 250 microliter of acetonitrile and inject the sample to HPLC/UPLC. The method was applied for extraction procedure for Pharmacokinetic samples after giving SLNs and free drugs of Retinoic acid and vitamin D3 formulation to rats as oral/subcutaneous routes and sampling time points (0.5 h, 1 h, 2 h, 4 h, 8 h, 12 h, 24 h, 48 h, 72 h, 96 h, 120 h, 144 h, 168 h)."}, "[2]": {"conditions": "in vivo; cited from earlier work"}}, "note": "Like-named read-outs stand apart in the source and are kept apart here."}
{"smiles": "CC1=C(/C=C/C(C)=C/C=C/C(C)=C/C(=O)O)C(C)(C)CCC1", "note": "[ATRA-S, all-trans retinoic acid]", "values": [{"measurement": "Cmax", "setting": "[1]; male, Wistar, 1 Lac IU, plasma ATRA, oral administration, rat, read-out: Cmax", "value": 151, "unit": "ng/mL"}, {"measurement": "AUC(0-t)", "setting": "[1]; male, Wistar, rat, po, 1 Lac I.U, plasma ATRA, single dose oral, 1 Lac I.U, rat, read-out: AUC (0-T)", "value": 357, "unit": "ng·h/mL"}, {"measurement": "AUC(0-t)", "setting": "[1]; male, Wistar, rat, po, 1 Lac I.U, plasma ATRA, single dose oral, 1 Lac I.U, rat, read-out: AUC (T-∞)", "value": 714, "unit": "ng·h/mL"}, {"measurement": "AUC(0-t)", "setting": "[1]; male, Wistar, rat, po, 1 Lac IU, plasma ATRA, oral administration, rat, read-out: AUC0-t", "value": 356, "unit": "ng·h/mL"}, {"measurement": "AUC(0-t)", "setting": "[1]; male, Wistar, rat, po, 1 Lac IU, plasma ATRA, oral administration, rat, read-out: AUCt-∞", "value": 713, "unit": "ng·h/mL"}, {"measurement": "AUC(0-t)", "setting": "[1]; male, Wistar, rat, sc, 2.5 Lac I.U, plasma ATRA, single dose subcutaneous, 2.5 Lac I.U, rat, read-out: AUC (0-T)", "value": 2820, "unit": "ng·h/mL"}, {"measurement": "AUC(0-t)", "setting": "[1]; male, Wistar, rat, sc, 2.5 Lac I.U, plasma ATRA, single dose subcutaneous, 2.5 Lac I.U, rat, read-out: AUC (T-∞)", "value": 2950, "unit": "ng·h/mL"}, {"measurement": "AUC(0-t)", "setting": "[1]; male, Wistar, rat, sc, 2.5 Lacs IU, plasma ATRA, single dose subcutaneous, rat, read-out: AUC0-t", "value": 2820, "unit": "ng·h/mL"}, {"measurement": "AUC(0-inf)", "setting": "[1]; male, Wistar, sc, 2.5 Lacs IU, plasma ATRA, single dose subcutaneous, rat", "value": 2950, "unit": "ng·h/mL"}, {"measurement": "Cmax", "setting": "[1]; male, Wistar, sc, 2.5 Lacs IU, plasma ATRA, single dose subcutaneous, rat, read-out: Cmax", "value": 1390, "unit": "ng/mL"}, {"measurement": "Cmax", "setting": "[1]; male, Wistar, sc, plasma ATRA, single dose subcutaneous injection, 2.5 Lac I.U, rat, read-out: Cmax", "value": 1400, "unit": "ng/mL"}, {"measurement": "half-life", "setting": "[1]; male, Wistar, sc, plasma ATRA, single dose subcutaneous, 2.5 Lac I.U, rat", "value": 57, "unit": "min"}, {"measurement": "Tmax", "setting": "[1]; male, Wistar, sc, plasma ATRA, single dose subcutaneous, 2.5 Lac I.U, rat, read-out: Tmax", "value": 30, "unit": "min"}, {"measurement": "half-life", "setting": "[1]; male, Wistar, plasma ATRA, single dose oral, 1 Lac I.U, rat", "value": 290, "unit": "min"}, {"measurement": "Cmax", "setting": "[1]; male, Wistar, plasma ATRA, single dose oral, 1 Lac I.U, rat, read-out: Cmax", "value": 151, "unit": "ng/mL"}, {"measurement": "Tmax", "setting": "[1]; male, Wistar, plasma ATRA, single dose oral, 1 Lac I.U, rat, read-out: Tmax", "value": 54, "unit": "min"}, {"measurement": "Kel", "setting": "[1]; plasma ATRA, single dose oral, 1 Lac I.U, rat", "value": 0.17}, {"measurement": "Kel", "setting": "[1]; plasma ATRA, single dose subcutaneous, 2.5 Lac I.U, rat", "value": 0.74}, {"measurement": "plasma ATRA dropped to an undetectable level at, after dosing", "setting": "[1]; rat plasma", "value": 4, "unit": "h"}]}
{"smiles": "C=C1CC[C@H](O)C/C1=C/C=C1\\CCC[C@]2(C)[C@@H]([C@H](C)CCCC(C)C)CC[C@@H]12", "note": "[Vitamin D3-S, cholecalciferol]", "values": [{"measurement": "Cmax", "setting": "[1]; male, Wistar, rat, in vivo, po", "value": "< 25", "unit": "ng/mL"}, {"measurement": "Tmax", "setting": "[1]; male, Wistar, rat, in vivo, po", "value": 0, "unit": "min"}, {"measurement": "Cmax", "setting": "[1]; male, Wistar, rat, in vivo, sc", "value": "< 25", "unit": "ng/mL"}, {"measurement": "Tmax", "setting": "[1]; male, Wistar, rat, in vivo, sc", "value": 0, "unit": "min"}, {"measurement": "Kel", "setting": "[1]; plasma vitamin D3, single dose oral, 1 Lac IU, rat", "value": 0.0}, {"measurement": "Kel", "setting": "[1]; plasma vitamin D3, single dose subcutaneous, 2.5 Lac I.U, rat", "value": 0.0}, {"measurement": "CL", "setting": "[1]; rat, in vivo, po", "value": 0.0, "unit": "mL/h/g"}, {"measurement": "T1/2", "setting": "[1]; rat, in vivo, po", "value": 0, "unit": "h"}, {"measurement": "CL", "setting": "[1]; rat, in vivo, sc", "value": 0.0, "unit": "mL/h/g"}, {"measurement": "T1/2", "setting": "[1]; rat, in vivo, sc", "value": 0, "unit": "h"}]}
{"smiles": "C=C1CC[C@H](O)C/C1=C/C=C1\\CCC[C@]2(C)[C@@H]([C@H](C)CCCC(C)C)CC[C@@H]12", "note": "[vitamin D3, cholecalciferol]", "values": [{"measurement": "Cmax in plasma", "setting": "[2]", "value": "not more than 75 ng/ml"}]}
